Consider 21 compounds from US9776962B2, “Aromatic compounds with GPR40 agonistic activity” (TAKEDA PHARMACEUTICAL COMPANY LIMITED, priority 2013, dated 2017).

The target in this test is T1, human GPR40 (Homo sapiens, UniProt O14842).
T1 construct: expressed in transfected cells
T1 sequence (O14842 whole entry): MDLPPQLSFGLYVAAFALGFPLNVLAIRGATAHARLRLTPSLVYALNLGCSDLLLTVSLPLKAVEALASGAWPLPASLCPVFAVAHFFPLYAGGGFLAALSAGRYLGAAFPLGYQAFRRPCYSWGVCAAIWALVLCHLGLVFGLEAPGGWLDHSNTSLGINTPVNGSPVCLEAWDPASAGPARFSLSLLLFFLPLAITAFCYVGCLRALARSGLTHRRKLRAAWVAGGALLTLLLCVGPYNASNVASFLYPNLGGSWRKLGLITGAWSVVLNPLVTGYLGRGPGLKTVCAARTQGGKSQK
Kind of test: Evaluation of human GPR40 agonist activity with increase in intracellular Ca2+ concentration as an index (FLIPR). The note with it: test compound 1 μM; CHO(dhfr−) cells stably expressing human GPR40; 100% = 10 μM compound of Example 153, 0% = DMSO. In kind it is cell-based. On the procedure: Plasmid hGPR40/pAKKO-1.11H for mammalian cells expression, wherein cDNA fragment (SEQ ID NO: 1) encoding the full-length human GPR40 was incorporated into an expression vector pAKKO-1.11H (Biochimica et Biophysica Acta vol. 1219 pp. 251-259 (1994)), was transfected into CHO-dhfr(−) cells (ATCC, CRL-9096) by using Lipofectamine 2000 (Invitrogen:11668-019). After transfection, the limiting dilution-culture method was performed to select clone in selection medium (nucleic acid-free α-MEM (Invitrogen:12561-056)) containing 10% dialyzed bovine serum (Invitrogen:26400-044)). The expression level of human GPR40 mRNA was confirmed by TaqMan PCR (Life Technologies), and the intracellular calcium mobilization activity of GPR40 ligand (γ-linolenic acid) was confirmed by FLIPR (Molecular Devices), and a clone of human GPR40 expressing CHO cells was selected.
Evaluation of Human GPR40 Agonist Activity with Increase in Intracellular Ca^2+ Concentration as an Index
CHO(dhfr−) cells that stably expressed human GPR40 were suspended in MEMα (Nikken Bio Medical Laboratory) containing 10% dialyzed bovine serum (JR Scientific), 10 mM HEPES (Life Technologies), 100 U/mL penicillin, 100 μg/mL streptomycin (Life Technologies), and plated on a 384 well black/clear cell culture plate at 10,000 cells/well. After culture overnight in a CO2 incubator at 37° C., the culture supernatant was removed, and loading buffer [Ca^2+ probe attached to Calcium Kit II-iCellux (DOJINDO) was dissolved in assay buffer (20 mM HEPES, 0.1% fatty acid-free BSA (Sigma-Aldrich), 2.5 mM probenecid (DOJINDO)-containing HESS (Life Technologies))] was added at 30 μL/well. After leaving for 1 hr at room temperature under light shielding, assay buffer containing the test compound at a final concentration of 1 μM was added at 10 μL/well in FLIPR Tetra (Molecular Devices), and the fluorescence amount was successively measured. Human GPR40 agonist activity calculated using an increase in the intracellular Ca^2+ concentration as an index, wherein the activity of 10 μM of the compound of Example 153 was 100%, and the activity when DMSO was added instead of the test compound was 0%.
As to `COc1ccc(C(=O)N(CC(C)C)c2ccc(OC)nc2)c(N2CCC(COc3cc(C(CC(=O)O)C4CC4)ccn3)CC2)c1` (stereo not drawn) [Example 140, 3-cyclopropyl-3-(2-((1-(5-methoxy-2-((6-methoxypyridin-3-yl)(2-methylpropyl)carbamoyl)phenyl)piperidin-4-yl)methoxy)pyridin-4-yl)propanoic acid], the activation at 1 µM is 93%. In turn, `COc1ccc(C(=O)N(CC(F)(F)F)c2cccc(C)n2)c(N2CCC(COc3cc(C(CC(=O)O)C4CC4)ccn3)CC2)c1` (stereo not drawn) [Example 143, 3-cyclopropyl-3-(2-((1-(5-methoxy-2-((6-methylpyridin-2-yl)(2,2,2-trifluoroethyl)carbamoyl)phenyl)piperidin-4-yl)methoxy)pyridin-4-yl)propanoic acid] registered an activation at 1 µM of 102%. Regarding `COc1ccc(C(=O)N(CC2(F)CC2)c2ccccn2)c(N2CCC(COc3cc(C(CC(=O)O)C4CC4)ccn3)CC2)c1` (stereo not drawn) [Example 144, 3-cyclopropyl-3-(2-((1-(2-(((1-fluorocyclopropyl)methyl)(pyridin-2-yl)carbamoyl)-5-methoxyphenyl)piperidin-4-yl)methoxy)pyridin-4-yl)propanoic acid], the activation at 1 µM is 79%. For the compound `CCC(C)(C)N(C(=O)c1ccc(OC)cc1N1CCC(COc2cc(C(CC(=O)O)C3CC3)ccn2)CC1)c1ccccn1` (stereo not drawn) [Example 145, 3-cyclopropyl-3-(2-((1-(5-methoxy-2-((2-methylbutan-2-yl)(pyridin-2-yl)carbamoyl)phenyl)piperidin-4-yl)methoxy)pyridin-4-yl)propanoic acid], the activation at 1 µM was 96%.

For the compound `COc1ccc(C(=O)N(c2ccccn2)C(C)C)c(N2CCC(COc3cc(C(CC(=O)O)C4CC4)ccn3)CC2)c1` (stereo not drawn) [Example 146, 3-cyclopropyl-3-(2-((1-(5-methoxy-2-(propan-2-yl(pyridin-2-yl)carbamoyl)phenyl)piperidin-4-yl)methoxy)pyridin-4-yl)propanoic acid], the activation at 1 µM came out at 82%. Regarding `COc1ccc(C(=O)N(CC(C)(F)F)c2cc(C)ccn2)c(N2CCC(COc3cc(C(CC(=O)O)C4CC4)ccn3)CC2)c1` (stereo not drawn) [Example 147, 3-cyclopropyl-3-(2-((1-(2-((2,2-difluoropropyl)(4-methylpyridin-2-yl)carbamoyl)-5-methoxyphenyl)piperidin-4-yl)methoxy)pyridin-4-yl)propanoic acid], the activation at 1 µM worked out at 97%. `COc1ccc(C(=O)N(CC(F)(F)F)c2cc(C)ccn2)c(N2CCC(COc3cc(C(CC(=O)O)C4CC4)ccn3)CC2)c1` (stereo not drawn) [Example 148, 3-cyclopropyl-3-(2-((1-(5-methoxy-2-((4-methylpyridin-2-yl)(2,2,2-trifluoroethyl)carbamoyl)phenyl)piperidin-4-yl)methoxy)pyridin-4-yl)propanoic acid]: the activation at 1 µM amounted to 104%. As for `CCC(C)(C)CN(C(=O)c1ccc(OC)cc1N1CCC(COc2cc(C(CC(=O)O)C3CC3)ccn2)CC1)c1ccccn1` (stereo not drawn) [Example 149, 3-cyclopropyl-3-(2-((1-(2-((2,2-dimethylbutyl)(pyridin-2-yl)carbamoyl)-5-methoxyphenyl)piperidin-4-yl)methoxy)pyridin-4-yl)propanoic acid], the activation at 1 µM is 101%. `COc1ccc(C(=O)N(CC(C)C)c2ncccc2C)c(N2CCC(COc3cc(C(CC(=O)O)C4CC4)ccn3)CC2)c1` (stereo not drawn) [Example 150, 3-cyclopropyl-3-(2-((1-(5-methoxy-2-((2-methylpropyl)(3-methylpyridin-2-yl)carbamoyl)phenyl)piperidin-4-yl)methoxy)pyridin-4-yl)propanoic acid]: the activation at 1 µM was determined as 84%. Next, `COc1ccc(C(=O)N(c2ccccn2)C2CCC2)c(N2CCC(COc3cc(C(CC(=O)O)C4CC4)ccn3)CC2)c1` (stereo not drawn) [Example 151, 3-(2-((1-(2-(cyclobutyl(pyridin-2-yl)carbamoyl)-5-methoxyphenyl)piperidin-4-yl)methoxy)pyridin-4-yl)-3-cyclopropylpropanoic acid]: 87%. For `COc1ccc(C(=O)N(CC(C)(C)F)c2cccc(C)n2)c(N2CCC(COc3cc(C(CC(=O)O)C4CC4)ccn3)CC2)c1` (stereo not drawn) [Example 152, 3-cyclopropyl-3-(2-((1-(2-((2-fluoro-2-methylpropyl)(6-methylpyridin-2-yl)carbamoyl)-5-methoxyphenyl)piperidin-4-yl)methoxy)pyridin-4-yl)propanoic acid], the activation at 1 µM turned out to be 100%. Compound `COc1ccc(C(=O)N(CC2(F)CCC2)c2ccccn2)c(N2CCC(COc3cc(C(CC(=O)O)C4CC4)ccn3)CC2)c1` (stereo not drawn) [Example 154, 3-cyclopropyl-3-(2-((1-(2-(((1-fluorocyclobutyl)methyl)(pyridin-2-yl)carbamoyl)-5-methoxyphenyl)piperidin-4-yl)methoxy)pyridin-4-yl)propanoic acid] showed an activation at 1 µM of 100%. Next, `COCC(C)(C)CN(C(=O)c1ccc(OC)cc1N1CCC(COc2cc(C(CC(=O)O)C3CC3)ccn2)CC1)c1ccccn1` (stereo not drawn) [Example 155, 3-cyclopropyl-3-(2-((1-(5-methoxy-2-((3-methoxy-2,2-dimethylpropyl)(pyridin-2-yl)carbamoyl)phenyl)piperidin-4-yl)methoxy)pyridin-4-yl)propanoic acid]: 96%; `COc1ccc(C(=O)N(CC(C)(C)C)c2ncccn2)c(N2CCC(COc3cc(C(CC(=O)O)C4CC4)ccn3)CC2)c1` (stereo not drawn) [Example 156, 3-cyclopropyl-3-(2-((1-(2-((2,2-dimethylpropyl)(pyrimidin-2-yl)carbamoyl)-5-methoxyphenyl)piperidin-4-yl)methoxy)pyridin-4-yl)propanoic acid]: 98%.

The compound `COc1ccc(C(=O)N(CC(F)F)c2cc(C)ccn2)c(N2CCC(COc3cc(C(CC(=O)O)C4CC4)ccn3)CC2)c1` (stereo not drawn) [Example 157, 3-cyclopropyl-3-(2-((1-(2-((2,2-difluoroethyl)(4-methylpyridin-2-yl)carbamoyl)-5-methoxyphenyl)piperidin-4-yl)methoxy)pyridin-4-yl)propanoic acid] displayed an activation at 1 µM of 96%. `COc1ccc(C(=O)N(CC(C)C)c2cc(C#N)ccn2)c(N2CCC(COc3cc(C(CC(=O)O)C4CC4)ccn3)CC2)c1` (stereo not drawn) [Example 158, 3-(2-((1-(2-((4-cyanopyridin-2-yl)(2-methylpropyl)carbamoyl)-5-methoxyphenyl)piperidin-4-yl)methoxy)pyridin-4-yl)-3-cyclopropylpropanoic acid] came in with an activation at 1 µM of 96%. As to `COc1ccc(C(=O)N(CCC(C)C)c2ccccn2)c(N2CCC(COc3cc(C(CC(=O)O)C4CC4)ccn3)CC2)c1` (stereo not drawn) [Example 159, 3-cyclopropyl-3-(2-((1-(5-methoxy-2-((3-methylbutyl)(pyridin-2-yl)carbamoyl)phenyl)piperidin-4-yl)methoxy)pyridin-4-yl)propanoic acid], the activation at 1 µM was 103%. With `COc1ccc(C(=O)N(CC(C)(C)OC(C)C)c2ccccn2)c(N2CCC(COc3cc(C(CC(=O)O)C4CC4)ccn3)CC2)c1` (stereo not drawn) [Example 160, 3-cyclopropyl-3-(2-((1-(2-((2-isopropoxy-2-methylpropyl)(pyridin-2-yl)carbamoyl)-5-methoxyphenyl)piperidin-4-yl)methoxy)pyridin-4-yl)propanoic acid], the activation at 1 µM is 97%.

The compound `COc1ccc(C(=O)N(CC(C)(C)OCC(F)(F)F)c2ccccn2)c(N2CCC(COc3cc(C(CC(=O)O)C4CC4)ccn3)CC2)c1` (stereo not drawn) [Example 161, 3-cyclopropyl-3-(2-((1-(5-methoxy-2-((2-methyl-2-(2,2,2-trifluoroethoxy)propyl)(pyridin-2-yl)carbamoyl)phenyl)piperidin-4-yl)methoxy)pyridin-4-yl)propanoic acid] yielded an activation at 1 µM of 97%. On to `COc1ccc(C(=O)N(CC2CC(F)(F)C2)c2ccccn2)c(N2CCC(COc3cc(C(CC(=O)O)C4CC4)ccn3)CC2)c1` (stereo not drawn) [Example 162, 3-cyclopropyl-3-(2-((1-(2-(((3,3-difluorocyclobutyl)methyl)(pyridin-2-yl)carbamoyl)-5-methoxyphenyl)piperidin-4-yl)methoxy)pyridin-4-yl)propanoic acid], for which the activation at 1 µM was 99%. Next, `COc1ccc(C(=O)N(CC(F)(F)F)c2ccnc(C)c2)c(N2CCC(COc3cc(C(CC(=O)O)C4CC4)ccn3)CC2)c1` (stereo not drawn) [Example 163, 3-cyclopropyl-3-(2-((1-(5-methoxy-2-((2-methylpyridin-4-yl)(2,2,2-trifluoroethyl)carbamoyl)phenyl)piperidin-4-yl)methoxy)pyridin-4-yl)propanoic acid]: 89%.
